Data on 47 compounds can be found in PMC11358092, “Caspofungin enhances the potency of rifampin against Gram-negative bacteria” (Frontiers in Microbiology, 2024).

Molecules are shown by their SMILES. Where a name gives a salt, the structure may show the parent alone.

The experiment relates to E. coli MG1655. Briefly: High-throughput screening of FDA-approved drug library for antibiotic adjuvants (growth inhibition, OD600). Particulars: library drug alone, LB medium, 96-well, 8 h static culture at 37°C, relative to PMBN (positive) and DMSO (negative) controls, %, table head prints no unit. Format: cell-based, Escherichia coli. On the procedure:
To screen for antibiotic adjuvants against GNB, […] library drugs or polymyxin B nonapeptide (PMBN, positive control) or dimethyl sulfoxide (DMSO, negative control). After 8 h of static culture at 37°C, the optical density at 600 nm (OD600) was measured using a microplate reader. Percentage inhibition was calculated as (ODN – ODX)/(ODN – ODP) × 100%, where ODX is the OD600 value for a test treated with drug X, and ODP and ODN are the OD600 values for the positive and negative control, respectively.

Regarding `CCO.C[C@H]1c2cccc(O)c2C(O)=C2C(=O)[C@]3(O)C(O)=C(C(N)=O)C(=O)[C@@H](N(C)C)[C@@H]3[C@@H](O)[C@@H]21.C[C@H]1c2cccc(O)c2C(O)=C2C(=O)[C@]3(O)C(O)=C(C(N)=O)C(=O)[C@@H](N(C)C)[C@@H]3[C@@H](O)[C@@H]21.Cl.Cl.O` [Doxycycline hyclate], the “Growth inhibition, Compound” value came out at 112%. As for `CC1(C)S[C@@H]2[C@H](NC(=O)[C@H](C(=O)O)c3ccsc3)C(=O)N2[C@H]1C(=O)O` [Ticarcillin disodium], the “Growth inhibition, Compound” value is on record as 86%. The value for `Cl.O=C1OC(CN2CCOCC2)CN1/N=C/c1ccc([N+](=O)[O-])o1` (centres unmarked) [Furaltadone hydrochloride] was 115%. For `Cc1nnc(SCC2=C(C(=O)O)N3C(=O)[C@@H](NC(=O)Cn4cnnn4)[C@H]3SC2)s1` [Cefazolin sodium salt], the “Growth inhibition, Compound” value is 90%. As to `C[C@@H](O)[C@H]1C(=O)N2C(C(=O)O)=C(S[C@@H]3CN[C@H](CNS(N)(=O)=O)C3)[C@H](C)[C@H]12` [Doripenem], the “Growth inhibition, Compound” value worked out at 95%. The value for `C/C(=C\C(=O)OCCCCCCCCC(=O)[O-])C[C@@H]1OC[C@H](C[C@@H]2O[C@H]2[C@@H](C)[C@H](C)O)[C@@H](O)[C@H]1O.C/C(=C\C(=O)OCCCCCCCCC(=O)[O-])C[C@@H]1OC[C@H](C[C@@H]2O[C@H]2[C@@H](C)[C@H](C)O)[C@@H](O)[C@H]1O.O.O.[Ca+2]` [Mupirocin calcium] was 96%; that for `C[C@H]1COc2c(N3CCN(C)CC3)c(F)cc3c(=O)c(C(=O)O)cn1c23` [Levofloxacin Hemihydrate] was 114%; that for `NC(=O)N/N=C/c1ccc([N+](=O)[O-])o1` [Furacilin] was 76%.

Turning to `CO[C@H]1/C=C/O[C@@]2(C)Oc3c(C)c(O)c4c(O)c(c5c(nc6cc(C)ccn65)c4c3C2=O)NC(=O)/C(C)=C\C=C\[C@H](C)[C@H](O)[C@@H](C)[C@@H](O)[C@@H](C)[C@H](OC(C)=O)[C@@H]1C` [Rifaximin], the “Growth inhibition, Compound” value came to 108%. The value for `CO/N=C(\C(=O)N[C@@H]1C(=O)N2C(C(=O)O)=C(CSc3nc(C)c(CC(=O)O)s3)CS[C@H]12)c1csc(N)n1` [Cefodizime Sodium] was 88%; that for `Cl.NC1CCN(c2nc3c(cc2F)c(=O)c(C(=O)O)cn3-c2ccc(F)cc2F)C1` (centres unmarked) [Tosufloxacin hydrochloride] was 103%.

In the case of `O=C(O)c1cn(-c2ccc(F)cc2)c2cc(N3CCNCC3)c(F)cc2c1=O` [Sarafloxacin], the “Growth inhibition, Compound” value is 109%.

On to `CCn1cc(C(=O)O)c(=O)c2cc(F)c(N3CCNCC3)cc21` [Norfloxacin], for which the “Growth inhibition, Compound” value is recorded as 99%. The value for `CCO/N=C(\C(=O)N[C@@H]1C(=O)N2C(C(=O)[O-])=C(Sc3nc(-c4cc[n+](C)cc4)cs3)CS[C@H]12)c1nsc(NP(=O)(O)O)n1` [Ceftaroline fosamil] was 93%; that for `CC[C@H]1OC(=O)[C@H](C)[C@@H](O[C@H]2C[C@@](C)(OC)[C@@H](O)[C@H](C)O2)[C@H](C)[C@@H](O[C@@H]2O[C@H](C)C[C@H](N(C)C)[C@H]2O)[C@](C)(OC)C[C@@H](C)C(=O)[C@H](C)[C@@H](O)[C@]1(C)O` [Clarithromycin] was 50%. To `[H]/N=C(\N/C(=N/[H])NCCCCCCNC(=N)NC(=N)Nc1ccc(Cl)cc1)Nc1ccc(Cl)cc1` [Chlorhexidine Acetate] belongs 103%; to `C[C@@H](O)[C@H]1C(=O)N2C(C(=O)[O-])=C(SC3Cn4cnc[n+]4C3)[C@H](C)[C@H]12` (some centres unmarked) [Biapenem], 113%. The value for `CC1(C)S[C@@H]2[C@H](NC(=O)C(c3ccccc3)S(=O)(=O)O)C(=O)N2[C@H]1C(=O)O.[Na].[Na]` (some centres unmarked) [Sulbenicillin Sodium] was 90%. Consider `CC1(C)S[C@@H]2[C@H](NC(=O)[C@H](N)c3ccccc3)C(=O)N2[C@H]1C(=O)OCOC(=O)[C@@H]1N2C(=O)C[C@H]2S(=O)(=O)C1(C)C` [Sultamicillin], for which the “Growth inhibition, Compound” value is on record as 106%. As for `CO[C@@]1(NC(=O)CSCC#N)C(=O)N2C(C(=O)O)=C(CSc3nnnn3C)CS[C@@H]21` [Cefmetazole sodium], the “Growth inhibition, Compound” value was 96%. With `CSCC1CN(/N=C/c2ccc([N+](=O)[O-])o2)C(=O)O1` (centres unmarked) [Nifuratel], the “Growth inhibition, Compound” value stood at 108%.

Regarding `Cc1nnc(SCC2=C(C(=O)O)N3C(=O)[C@@H](NC(=O)Cn4cnnn4)[C@H]3SC2)s1` [Cefazolin], the “Growth inhibition, Compound” value is on record as 102%.

On to `CN1C[C@@H]2C[C@H]1CN2c1cc2c(cc1F)c(=O)c(C(=O)O)cn2C1CC1.CS(=O)(=O)O` [Danofloxacin mesylate], for which the “Growth inhibition, Compound” value amounted to 100%. For the compound `Oc1ccc(Cl)c2cccnc12` [Dermofongin], the “Growth inhibition, Compound” value is on record as 85%.

As to `C[C@H]1c2cccc(O)c2C(=O)C2=C(O)[C@]3(O)C(=O)C(C(N)=O)=C(O)[C@@H](N(C)C)[C@@H]3[C@@H](O)[C@@H]21` [Doxycycline], the “Growth inhibition, Compound” value came to 118%. To `CO/N=C(\C(=O)N[C@@H]1C(=O)N2C(C(=O)O)=C(C[n+]3cccc4c3CCC4)CS[C@H]12)c1csc(N)n1.O=S(=O)([O-])O` [Cefpirome sulfate] belongs 93%; to `O=c1[nH]c(=O)n([C@H]2C[C@H](O)[C@@H](CO)O2)cc1C(F)(F)F` [Trifluridine], 27%. With `CN[C@@H]1[C@@H](O)[C@@H](O[C@@H]2[C@@H](O)[C@H](O[C@H]3O[C@H]([C@@H](C)NC)CC[C@H]3N)[C@@H](N)C[C@H]2N)OC[C@]1(C)O.O=S(=O)(O)O` [Gentamycin sulfate], the “Growth inhibition, Compound” value is 110%. With `CCCCCCCCN=c1ccn(CCCCCCCCCCn2ccc(=NCCCCCCCC)cc2)cc1` [Octenidine Dihydrochloride], the “Growth inhibition, Compound” value is recorded as 91%. The value for `Cn1nnc(-c2ccc(-c3ccc(N4C[C@H](CO)OC4=O)cc3F)cn2)n1` [Torezolid] was 61%; that for `CN(C)[C@@H]1C(O)=C(C(N)=O)C(=O)[C@@]2(O)C(O)=C3C(=O)c4c(O)ccc(Cl)c4[C@@H](O)[C@H]3C[C@@H]12` [Demeclocycline hydrochloride] was 99%; that for `CN(C)[C@@H]1C(O)=C(C(N)=O)C(=O)[C@@]2(O)C(O)=C3C(=O)c4c(O)cccc4[C@@](C)(O)C3[C@H](O)C12.Cl` (some centres unmarked) [Aquacycline] was 110%. The value for `CN[C@@H]1[C@H](O[C@H]2[C@H](O[C@H]3[C@H](O)[C@@H](O)[C@H](NC(=N)N)[C@@H](O)[C@@H]3NC(=N)N)O[C@@H](C)[C@]2(O)CO)O[C@@H](CO)[C@H](O)[C@H]1O` [Dihydrostreptomycin sulfate] was 106%.

Regarding `Oc1c(Cl)cc(Cl)c2cccnc12` [Capitrol], the “Growth inhibition, Compound” value amounted to 118%. To `NCC[C@H](O)C(=O)N[C@@H]1C[C@H](N)[C@@H](O[C@H]2O[C@H](CN)[C@@H](O)[C@H](O)[C@H]2O)[C@H](O)[C@H]1O[C@H]1O[C@H](CO)[C@@H](O)[C@H](N)[C@H]1O.O=S(=O)(O)O.O=S(=O)(O)O` [Amikacin disulfate] belongs 108%; to `C[C@@H](O)[C@H]1C(=O)N2C(C(=O)O)=C(S[C@@H]3CN[C@H](CNS(N)(=O)=O)C3)[C@H](C)[C@H]12.O` [Doripenem Hydrate], 77%. The value for `NCC[C@H](O)C(=O)N[C@@H]1C[C@H](N)[C@@H](O[C@H]2O[C@H](CN)[C@@H](O)[C@H](O)[C@H]2O)[C@H](O)[C@H]1O[C@H]1O[C@H](CO)[C@@H](O)[C@H](N)[C@H]1O` [Amikacin] was 105%. The value for `C[C@@H]1CN(c2c(F)c(F)c3c(=O)c(C(=O)O)cn(C4CC4)c3c2F)C[C@H](C)N1` [Orbifloxacin] was 113%; that for `[H]/N=C(\N/C(=N/[H])NCCCCCCNC(=N)NC(=N)Nc1ccc(Cl)cc1)Nc1ccc(Cl)cc1` [Chlorhexidine] was 101%; that for `O=C([O-])C1=C(CSc2nnnn2CS(=O)(=O)[O-])CS[C@@H]2[C@H](NC(=O)[C@H](O)c3ccccc3)C(=O)N12.[Na+].[Na+]` [Cefonicid sodium] was 59%. For the compound `CO/N=C(\C(=O)N[C@@H]1C(=O)N2C(C(=O)O)=C(CSc3nc(=O)c(=O)[nH]n3C)CS[C@H]12)c1csc(N)n1` [Ceftriaxone sodium], the “Growth inhibition, Compound” value was found to be 114%. The value for `CN[C@@H]1[C@H](O)[C@H](NC)[C@H]2O[C@@]3(O)C(=O)C[C@@H](C)O[C@H]3O[C@@H]2[C@H]1O.Cl.Cl` [Spectinomycin dihydrochloride] was 92%; that for `CCn1cc(C(=O)O)c(=O)c2cnc(N3CCNCC3)nc21` [Pipemidic acid] was 105%; that for `Nc1nc(/C(=N/O)C(=O)N[C@@H]2C(=O)N3C(C(=O)O)=C(/C=C4\CCN([C@@H]5CCNC5)C4=O)CS[C@H]23)ns1` [Ceftobiprole] was 107%. The value for `CC(=O)Oc1ccccc1C(=O)Nc1ncc([N+](=O)[O-])s1` [Nitazoxanide] was 36%; that for `CC1(C)S[C@@H]2[C@H](NC(=O)[C@H](NC(=O)N3CCNC3=O)c3ccccc3)C(=O)N2[C@H]1C(=O)O` [Azlocillin sodium] was 94%.

For the compound `CCN1CCN(C(=O)N[C@@H](C(=O)N[C@@H]2C(=O)N3[C@@H]2SC(C)(C)[C@@H]3C(=O)O)c2ccccc2)C(=O)C1=O` [Piperacillin sodium salt], the “Growth inhibition, Compound” value was determined as 88%.
